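Assay format: 96-well plates, 48-hour exposure. At the GI50, growth is halved. TGI: concentration producing complete growth inhibition.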
What was measured:
Assay in all cases: NCI tumour cell line growth inhibition, 48 h
[1] = test system: RPMI-8226 leukemia
[2] = test system: DMS 114 small cell lung
[3] = test system: A498 renal
[4] = test system: SF-295 CNS
[5] = test system: KM20L2 colon
[6] = test system: SR leukemia
[7] = test system: SK-MEL-28 melanoma
[8] = test system: MCF7 breast
[9] = test system: T-47D breast
[10] = test system: PC-3 prostate

Structure (SMILES) | TGI [1] [µM] | TGI [2] [µM] | TGI [3] [µM] | TGI [4] [µM] | TGI [5] [µM] | TGI [6] [µM] | TGI [7] [µM] | GI50 [8] [nM] | TGI [8] [µM] | GI50 [1] [nM] | GI50 [9] [µM] | TGI [9] [µM] | GI50 [3] [µM] | GI50 [4] [nM] | GI50 [10] [µM] | TGI [10] [µM] | GI50 [6] [nM] | GI50 [7] [µM] | GI50 [5] [µM]
CC(/C=C/C(=O)c1sc(C(N)=S)nc1C)=C\c1ccccc1 | 44.6 | 35 | > 100 | > 100 | > 100 | 98 | > 100 |  |  |  |  |  |  |  |  |  |  |  | 
Cc1cc(=O)[nH]c(N/N=C/c2ccccc2O)n1 | > 100 |  | 93.2 | > 100 |  | > 100 | > 100 | 463 | > 100 | 5610 | 3.74 | > 100 | 20.5 | 3960 | 4.95 | > 100 | 6220 | 25.3 | 
O=C1NC(=O)C(=Cc2cn(Cc3ccccc3)c3ccccc23)C(=O)N1 | > 61.3 |  | 0.594 | 34.5 |  | 30.5 | 30.6 | 6540 | 23 | 8230 | 4.09 | 20 | 0.125 | 1390 | 11.4 | 30.8 | 10600 | 15 | 
CC1=NN(c2ccccc2)C(=O)C12[C@H](c1ccccc1)C2(C#N)C#N (some centres not stated) | 4.08 |  | 31.6 | 25.5 | 27.3 |  | 9.6 |  |  |  |  |  |  |  |  |  |  |  | 
CN1CCN=C1c1nnn(-c2ccc([N+](=O)[O-])cc2)c1-c1ccccc1 |  | > 100 | > 100 | > 100 | > 100 | > 100 | > 100 |  |  |  |  |  |  |  |  |  |  |  | 
COc1ccc(NC(=O)CC(=O)N/N=C(\C)c2cc3ccccc3oc2=O)cc1 | > 100 | > 100 |  | > 100 | > 100 |  | > 100 |  |  |  |  |  |  |  |  |  |  |  | 
CCCCC#Cc1c(I)n(C2OC(CO[Si](C)(C)C(C)(C)C)C3OC(C)(C)OC32)c(=O)n(C(=O)c2ccccc2)c1=O (configuration not stated) | 17.4 |  | 98.3 | 27.3 |  | 9.35 | 22.5 | 2140 | 5.59 | 3640 | 4.14 | 19.7 | 30.9 | 12700 | 10.3 | 22.9 | 1690 | 6.94 | 
C=C(C)[C@@H]1CCc2c(O)c(O)c(=O)cc(C)c2C1 | > 100 |  | > 62.3 | > 100 |  | > 20.3 | > 77.2 |  | 20.7 |  |  | 23.7 |  |  |  | > 100 |  |  | 
COc1ccc(Br)c(CN2CCc3ccccc32)c1OS(=O)(=O)c1ccc(C)cc1 | > 100 | 53.5 |  | > 100 |  | > 100 | > 100 |  |  |  |  |  |  |  |  |  |  |  | 
COc1c(OC)c(OC)c2c(=O)cc(-c3ccc(OC(C)C)cc3)oc2c1OC | 23.7 |  | 36.9 | > 53.6 |  | > 26.2 | > 55.4 |  | 35.8 |  |  | 42.5 |  |  |  | > 100 |  |  | 
COc1cc(Cl)c(CC(=O)c2c[nH]c3ccccc23)cc1OC | > 100 |  | > 59.4 | > 68.3 |  | > 100 | > 100 |  | > 100 |  |  | > 100 |  |  |  | > 100 |  |  | 
Cc1ccc(S(=O)(=O)n2cc([C@@]3(O)C[C@H](CSC#N)OC3=O)c3ccccc32)cc1 | 40.1 |  | 46.5 | 69.2 |  | 4.76 | 27.7 | 2800 | 18.1 | 2750 | 12.8 | 32.5 | 14.7 | 16100 | 17.8 | 50.4 | 410 | 14 | 
O=C1OC(=O)C23CSCC12C1C=CC3O1 (configuration not stated) | > 100 | > 100 | > 100 | > 100 | > 100 |  | > 100 |  |  |  |  |  |  |  |  |  |  |  | 
Cc1nn(C)c2ncnc(N/N=C/c3cccc(O)c3O)c12 | > 100 |  | 16.3 | 49.9 |  | 16.3 | > 100 | 594 | > 100 | 526 | 3.25 | > 100 | 2.97 | 2730 | 0.545 | > 100 | 269 | 0.455 | 
COc1ccc(N2C(=O)[C@@H](N=[N+]=[N-])[C@@H]2[C@H]2COC(C)(C)O2)cc1 | > 100 | > 100 |  | > 100 | > 100 | > 100 | > 100 |  |  |  |  |  |  |  |  |  |  |  | 
COc1cc(Cc2c(C)cc(OC)c3[nH]c4ccccc4c23)cc2c1[nH]c1ccccc12 | > 25 | > 25 |  |  | 10.8 | > 25 | > 25 |  |  |  |  |  |  |  |  |  | 7770 | 8.61 | 5.28
CCC(C)(O)c1cn(-c2ccc(Cl)cc2)nn1 (configuration not stated) | > 100 |  | > 100 | > 100 | > 100 | > 100 | > 100 |  |  |  |  |  |  |  |  |  |  |  | 
CN(C)CCN1C(=O)c2cccc3c(/C=C/CN4C(=O)c5cccc6cccc(c56)C4=O)ccc(c23)C1=O | > 100 |  | > 100 | > 100 |  | > 100 | 4.71 | 21100 | 62.4 | > 100000 | > 100 | > 100 | 34.1 | > 100000 | > 100 | > 100 | 39200 | 0.766 | 
Cc1cc(=O)[nH]c(NNC(C#N)c2ccccc2O)n1 (configuration not stated) | > 100 | 60.9 |  | > 100 | > 100 | > 100 | > 100 |  |  |  |  |  |  |  |  |  |  |  | 
CCN1CCN(c2cc(C(=O)Nc3cccc(Nc4ccc5c(OC)cccc5n4)c3)cc(C(F)(F)F)c2)CC1 | 5.32 |  | 10.5 | 2.25 |  | 11.7 | 2.2 | 679 | 2.28 | 1200 | 2.05 | 11.7 | 4.94 | 803 | 0.805 | 2.5 | 883 | 0.846 | 
CCOC(=O)[C@@]12C(C)=CC(=O)O[C@]1(C)C1C(=O)NC(=O)C12 (some centres not stated) | > 100 | > 100 | > 100 | > 100 | > 100 |  | > 100 |  |  |  |  |  |  |  |  |  |  |  | 
CC(C)C[C@H](NC(=O)Cn1cccc(CNC(=O)c2ccccc2)c1=O)B(O)O |  |  | 0.706 | 2.24 |  | > 100 | 13 | 409 | > 100 | 352 | 0.335 | 2.82 | 0.136 | 442 | 3.08 | > 59.1 | 304 | 0.207 | 

Reference: PubChem BioAssay (NCI)
